US12678387B2, “Composition for alleviating hair loss or promoting hair growth” (LG HOUSEHOLD & HEALTH CARE LTD., priority 2020, dated 2026)

Columns and labels:
[1] = tested on: Human-derived dermal papilla cells (DPCs); assay: Enhancement of activity of dermal papilla cells (CCK-8 method); format: cell-based; conditions: for Activity of dermal papilla cells (%): incubated for a day, percentage of the control group as 100; for Effect on activity and proliferation of dermal papilla cells (in words): summary of Table 3
Protocol: Human-derived dermal papilla cells (DPCs) were purchased from PromoCell. The DPCs were cultured in DMEM (Hyclone Inc., UT, USA) containing 5% fetal bovine serum (FBS; GIBCO, NY, USA), 100 units/mL penicillin and 100 μg/mL streptomycin under the condition of 37° C. and 5% CO2. The cultured DPCs were seeded onto a 96-well plate at 3,000 cells/well and then cultured for 24 hours under a 0.1% serum condition. […] After the incubation, the enhancement of cellular activity was evaluated by the CCK method. The cell culture was treated and incubated with CCK-8 at 1:10 for 1 hour. 1 hour later, the absorbance of each well was measured at 450 nm. All the experiments were 3 times and the absorbance was averaged. The result was expressed as percentage of the control group as 100.

[2] = tested on: Human-derived dermal papilla cells (DPCs); assay: Enhancement of mitochondrial activity of dermal papilla cells (JC-1 method); format: cell-based; conditions: for Mitochondrial activity of dermal papilla cells (%): incubated for a day, percentage of the control group as 100; for Effect on mitochondrial activity of dermal papilla cells (in words): summary of Table 4
Protocol: Human-derived dermal papilla cells (DPCs) were purchased from PromoCell. The DPCs were cultured in DMEM (Hyclone Inc., UT, USA) containing 5% fetal bovine serum (FBS; GIBCO, NY, USA), 100 units/mL penicillin and 100 μg/mL streptomycin under the condition of 37° C. and 5% CO2. The cultured DPCs were seeded onto a 96-well plate at 3,000 cells/well and then cultured for 24 hours under a 0.1% serum condition. […] After the incubation, the degree of cell proliferation was evaluated by the JC-1 method. The cell culture was treated and incubated with JC-1 at 1:100 for 1 hour. 1 hour later, the fluorescence of each well was measured at 590 nm and 530 nm. All the experiments were 3 times and the fluorescence intensity was averaged. The result was expressed as percentage of the control group as 100.

androgen receptor = assay: Androgenic activity: MMTV-Luc transcriptional activation assay in 22Rv1 cells with DHT; format: cell-based, human; conditions: for Inhibition of androgenic activity (%): 10 μg/mL together with 1 nM DHT, 24 hours; for Effect of inhibiting androgenic activity (in words): summary of Table 6
Protocol: The stable cell line was maintained by subculturing using RPMI1640 and 10% fetal bovine serum (GIBCO BRL, Gaithersburg, MD, USA). For transcriptional activation assay, the cells were seeded in a 96-well plate, with 25,000 cells per well, while replacing the medium with phenol red-free RPMI1640 containing 5% charcoal-stripped fetal bovine serum. […] The cell culture was treated and incubated with CCK-8 at 1:10 for 2 hours. 2 hour later, the absorbance of each well was measured at 450 nm. All the experiments were 3 times and the absorbance was averaged.

Wnt/β-catenin signaling = assay: Wnt/β-catenin luciferase reporter assay in Wnt Reporter HEK293A cells; format: cell-based; conditions: for Wnt signaling activity for activating hair follicles (%): untreated group 100%; for Wnt signaling activity (in words): summary of Table 5
Text: In general, the Wnt/β-catenin signaling activated in the dermal papillae during transition from the […] to the anagen transition in the hair growth cycle begins as the hair starts to grow and occurs throughout the anagen phase. In the telogen and catagen phases, the Wnt/β-catenin signaling decreases or disappears, resulting in degeneration of hair follicles and shedding of hair. Therefore, it was investigated in the examples how much the momordin Ic, platycodin D2, polygalacin D or pseudoginsenoside RT5 of the present disclosure contributes to the amplification of Wnt/β-catenin signaling.
Wnt3a protein was used as a positive control group for amplifying Wnt/β-catenin signaling, and DMSO was used as a negative control group. After seeding Wnt Reporter HEK293A cells in a 96-well culture plate, with 3×10^4 cells per well, and then treating with the momordin Ic, platycodin D2, polygalacin D or pseudoginsenoside RT5 of the present disclosure as described in Table 5, reporter assay was conducted using a Promega's luciferase assay kit (E1960). The experiment was conducted according to the manufacturer's instructions and the activity of the Wnt/β-catenin promoter was measured using a luminometer (Victor; PerkinElmer, Waltham, Massachusetts, USA).

| Compound | Activity of dermal papilla cells (%) ([1]; 10 μg/mL) | Effect on activity and proliferation of dermal papilla cells (in words) [1] | Mitochondrial activity of dermal papilla cells (%) ([2]; 10 μg/mL) | Effect on mitochondrial activity of dermal papilla cells (in words) [2] | Inhibition of androgenic activity (%) (androgen receptor) | Activity of dermal papilla cells (%) ([1]; 2 μg/mL) | Mitochondrial activity of dermal papilla cells (%) ([2]; 2 μg/mL) | Wnt signaling activity for activating hair follicles (%) (Wnt/β-catenin signaling; 2 μg/mL) | Wnt signaling activity for activating hair follicles (%) (Wnt/β-catenin signaling; 10 μg/mL) | Wnt signaling activity (in words) (Wnt/β-catenin signaling) | Effect of inhibiting androgenic activity (in words) (androgen receptor) |
| --- | --- | --- | --- | --- | --- | --- | --- | --- | --- | --- | --- |
| CC(C)=C[C@@H]1CO[C@]23C[C@@]4(CO2)[C@@H](CC[C@@H]2[C@@]5(C)CC[C@H](O[C@H]6OC[C@H](O)[C@H](O[C@H]7O[C@H](COS(=O)(=O)O)[C@@H](O)[C@H](O)[C@H]7O)[C@H]6O[C@@H]6O[C@@H](CO)[C@H](O)[C@H]6O)C(C)(C)[C@@H]5CC[C@]24C)[C@H]3[C@@]1(C)O [Bacopaside I, bacopaside I] | 133 | superior effect of enhancing the activity of dermal papilla cells | 110 | superior effect of enhancing the mitochondrial activity | 6 | – | – | – | – | – | – |
| Nc1cc(N2CCCCC2)nc(N)[n+]1[O-] [Minoxidil, 2,4-diamino-6-piperidinopyrimidine 3-oxide, reference compound] | – | – | – | – | – | 121 | 129 | 82 | – | – | – |
| CC1(C)CC[C@]2(C(=O)O)CC[C@]3(C)C(=CC[C@@H]4[C@@]5(C)CC[C@H](O[C@@H]6O[C@H](C(=O)O)[C@@H](O)[C@H](O[C@@H]7OC[C@@H](O)[C@H](O)[C@H]7O)[C@H]6O)C(C)(C)[C@@H]5CC[C@]43C)[C@@H]2C1 [Momordin Ic, momordin Ic] | 148 | superior effect of enhancing the activity of dermal papilla cells | 120 | superior effect of enhancing the mitochondrial activity | 12 | – | – | – | 370 | superior Wnt signaling activity | – |
| CC(C)=CCC[C@](C)(O)[C@H]1CC[C@]2(C)[C@@H]1[C@H](O)C[C@@H]1[C@@]3(C)CC[C@H](O)C(C)(C)[C@@H]3[C@@H](O[C@@H]3O[C@H](CO)[C@@H](O)[C@H](O)[C@H]3O[C@@H]3OC[C@@H](O)[C@H](O)[C@H]3O)C[C@]12C [Notoginsenoside R2, notoginsenoside R2] | 131 | superior effect of enhancing the activity of dermal papilla cells | 117 | superior effect of enhancing the mitochondrial activity | 29 | – | – | – | – | – | superior effect of inhibiting androgenic activity |
| CC(C)C1=CC(=O)C(C)(C2C(O)CC3(C)C4CC=C5C(CCC(OC6OC(CO)C(O)C(O)C6OC6OC(C)C(O)C(O)C6O)C5(C)C)C4(C)C(=O)CC23C)O1 (stereo not shown) [Picfeltarraenin IB, picfeltarraenin IB] | 139 | superior effect of enhancing the activity of dermal papilla cells | – | – | – | – | – | – | – | – | – |
| C[C@@H]1O[C@@H](O[C@H]2[C@H](OC(=O)[C@]34CCC(C)(C)C[C@H]3C3=CC[C@@H]5[C@@]6(C)C[C@H](O)[C@H](O[C@@H]7O[C@H](CO)[C@@H](O)[C@H](O[C@@H]8O[C@H](CO)[C@@H](O)[C@H](O)[C@H]8O)[C@H]7O)C(CO)(CO)[C@@H]6CC[C@@]5(C)[C@]3(C)C[C@H]4O)OC[C@H](O)[C@@H]2O)[C@H](O)[C@H](O)[C@H]1O[C@@H]1OC[C@@H](O)[C@H](O[C@@H]2OC[C@](O)(CO)[C@H]2O)[C@H]1O [Platycodin D2, platycodin D2] | 162 | superior effect of enhancing the activity of dermal papilla cells | – | – | 16 | – | – | – | 216 | superior Wnt signaling activity | superior effect of inhibiting androgenic activity |
| C[C@@H]1O[C@@H](O[C@H]2[C@H](OC(=O)[C@]34CCC(C)(C)C[C@H]3C3=CC[C@@H]5[C@@]6(C)C[C@H](O)[C@H](O[C@@H]7O[C@H](CO)[C@@H](O)[C@H](O)[C@H]7O)[C@@](C)(CO)[C@@H]6CC[C@@]5(C)[C@]3(C)C[C@H]4O)OC[C@H](O)[C@@H]2O)[C@H](O)[C@H](O)[C@H]1O[C@@H]1OC[C@@H](O)[C@H](O[C@@H]2OC[C@](O)(CO)[C@H]2O)[C@H]1O [Polygalacin D, polygalacin D] | 164 | superior effect of enhancing the activity of dermal papilla cells | – | – | 26 | – | – | – | 293 | superior Wnt signaling activity | superior effect of inhibiting androgenic activity |
| C[C@@H]1O[C@@H](O[C@H]2[C@H](O[C@H]3[C@H](O[C@H]4CC[C@]5(C)[C@H]6CC=C7[C@@H]8CC(C)(C)CC[C@]8(C(=O)O)CC[C@@]7(C)[C@]6(C)CC[C@H]5C4(C)C)OC[C@H](O)[C@@H]3O)O[C@H](CO)[C@@H](O)[C@@H]2O)[C@H](O)[C@H](O)[C@H]1O [Raddeanin A, raddeanin A] | 130 | superior effect of enhancing the activity of dermal papilla cells | – | – | 10 | – | – | – | – | – | – |
| CC(C)=CCC[C@](C)(O[C@@H]1O[C@H](CO)[C@@H](O)[C@H](O)[C@H]1O)[C@H]1CC[C@]2(C)[C@@H]1[C@H](O)C[C@@H]1[C@@]3(C)CC[C@H](O[C@@H]4O[C@H](CO)[C@@H](O)[C@H](O)[C@H]4O[C@@H]4O[C@H](CO)[C@@H](O)[C@H](O)[C@H]4O)C(C)(C)[C@@H]3[C@@H](O)C[C@]12C [Vina-ginsenoside R4, vina-ginsenoside R4] | 137 | superior effect of enhancing the activity of dermal papilla cells | 111 | superior effect of enhancing the mitochondrial activity | 4 | – | – | – | – | – | – |
| C[C@@H]1CC[C@]2(C(=O)O)CC[C@]3(C)C(=CC[C@@H]4[C@@]5(C)CC[C@H](O[C@@H]6OC[C@H](O)[C@H](O)[C@H]6O)C(C)(C)[C@@H]5CC[C@]43C)[C@@H]2[C@]1(C)O [Ziyuglycoside II, ziyuglycoside II] | 139 | superior effect of enhancing the activity of dermal papilla cells | 105 | superior effect of enhancing the mitochondrial activity | – | – | – | – | – | – | – |
| asiaticoside B | 131 | superior effect of enhancing the activity of dermal papilla cells | 151 | superior effect of enhancing the mitochondrial activity | 6 | – | – | – | – | – | – |
